The source of these data is patent US20180201592A1, “2-AMINO-1,3,4-THIADIAZINE AND 2-AMINO-1,3,4-OXADIAZINE BASED ANTIFUNGAL AGENTS” (F2G Limited, priority 2015, published 2018).

A word on the MIC: it is the least concentration at which growth counts as inhibited.

Each structure is given as a SMILES string. In brackets after ≈: the same amount, converted by molar mass. Like-named read-outs stand apart in the source and are kept apart here.

One assay has as its system Aspergillus fumigatus. The experiment in a line: Minimum inhibitory concentration, YAG medium. To be noted: banded MIC grade. The assay is classed as cell-based. Summed up: (§1)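 Spores from 5-day Sabouraud agar cultures were suspended in YAG medium (1% glucose, 1% ammonium chloride, 0.5% yeast extract) at 1-2×10^4 cfu/mL and exposed to doubling dilutions of compound (50-0.05 mg/L) for 24 hrs at 35° C. MIC was the lowest concentration giving >70% growth inhibition by OD485 versus drug-free control.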

The test system of a further assay is A. fumigatus 210. As to the kind of experiment: Minimum inhibitory concentration, YAG medium. The assay is classed as cell-based, Aspergillus fumigatus. To be noted: banded MIC grade. Put shortly:
as §1

A further assay deals with C. tropicalis. The experiment in a line: Minimum inhibitory concentration, RPMI medium. The settings on record: banded MIC grade. The assay is classed as cell-based. Put shortly: (§2)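 Growth was measured by OD at 485 nm after 24-48 hrs at 35° C in RPMI 1640 medium. Compound was serially diluted twofold in water, starting from a 5 mg/mL DMSO stock solution.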
The test system of the next assay is C. parapsilosis. As to the kind of experiment: Minimum inhibitory concentration, RPMI medium. The settings on record: banded MIC grade; for MIC: Lodderomyces parapsilosis, RPMI media. The assay is classed as cell-based. Summed up:
as §2

The test system of another assay is C. albicans. As to the kind of experiment: Minimum inhibitory concentration, RPMI medium. The assay is classed as cell-based. To be noted: banded MIC grade; for MIC: Candida albicans, RPMI media. Summed up:
as §2

In the next assay the test system is A. terreus 49. As to the kind of experiment: Minimum inhibitory concentration, YAG medium. To be noted: banded MIC grade. The assay is classed as cell-based, Aspergillus terreus. Put shortly: (§3)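 MIC in mg/L, from OD485 growth read-out after 24 hrs at 35° C in YAG medium with Aspergillus spores. Doubling dilutions in water made from a 5 mg/mL DMSO stock.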
A further assay concerns Aspergillus flavus. The experiment in a line: Minimum inhibitory concentration, YAG medium. The assay is classed as cell-based. To be noted: banded MIC grade. Summed up: as §3
For a further assay, the system named is Aspergillus niger. As to the kind of experiment: Minimum inhibitory concentration, YAG medium. The format is cell-based. The settings on record: banded MIC grade. Put shortly: as §3
In another assay the test system is Aspergillus terreus. As to the kind of experiment: Minimum inhibitory concentration, YAG medium. The format is cell-based. To be noted: banded MIC grade. Put shortly:
as §3

In the case of `CN1N=C(N)SC=C1c1ccc(Cl)c(Cl)c1` [5-(3,4-dichlorophenyl)-4-methyl-1,3,4-thiadiazin-2-amine], the MIC with Aspergillus fumigatus (Aspergillus fumigatus, YAG media) was 1 to 5 µg/mL (≈ 3.65 to 18.2 µM); against A. fumigatus 210 (Aspergillus fumigatus, 210, YAG media) it was 1 to 5 µg/mL (≈ 3.65 to 18.2 µM); with C. tropicalis (Candida tropicalis, RPMI media), at least 20 µg/mL; with C. parapsilosis (read-out: MIC grade C. PARAPSILOSIS), at least 20 µg/mL; in the assay with C. parapsilosis (read-out: MIC grade, C. PARAPSILOSIS, RPMI media) it was at least 20 µg/mL; with C. albicans (read-out: MIC grade C. ALBICANS) it was 5 to 20 µg/mL (≈ 18.2 to 72.9 µM). Moreover, the MIC in the assay on C. albicans (read-out: MIC grade, C. ALBICANS, RPMI media) was at least 20 µg/mL; in the assay on A. terreus 49 (Aspergillus terreus, 49, YAG media), 0.2 to 1 µg/mL (≈ 0.729 to 3.65 µM); with Aspergillus flavus (Aspergillus flavus, YAG media), at least 5 µg/mL; in the assay with Aspergillus niger (Aspergillus niger, YAG media), 1 to 5 µg/mL (≈ 3.65 to 18.2 µM); against Aspergillus terreus (Aspergillus terreus, YAG media), 1 to 5 µg/mL (≈ 3.65 to 18.2 µM).

As to `NC1=NN=C(CCCCCCCOc2ccccc2)CS1`, the “MIC grade, A. FUMIGATUS, YAG media” value with Aspergillus fumigatus was 4 (4: <0.2 mg/L). The “MIC grade, A. FUMIGATUS 210, YAG media” value in the assay with A. fumigatus 210 was 3 (3: 0.2-1 mg/L). Also, the “MIC grade, C. TROPICALIS, RPMI media” value against C. tropicalis is given as 3 (3: 1-5 mg/L). The “MIC grade, C. PARAPSILOSIS, RPMI media” value against C. parapsilosis is on record as 4 (4: <1 mg/L). Also, the “MIC grade, C. ALBICANS, RPMI media” value with C. albicans is given as 3 (3: 1-5 mg/L). Besides, the “MIC grade, A. TERREUS 49, YAG media” value against A. terreus 49 is 4 (4: <0.2 mg/L). For the same molecule, the “MIC grade, A. FLAVUS, YAG media” value in the assay on Aspergillus flavus is listed as 4 (4: <0.2 mg/L). Also, the “MIC grade, A. NIGER, YAG media” value with Aspergillus niger was 4 (4: <0.2 mg/L). Also, the “MIC grade, A. TERREUS, YAG media” value in the assay with Aspergillus terreus is listed as 4 (4: <0.2 mg/L).

As for `NC1=NN=C(c2ccccn2)CS1`, the “MIC grade, A. FUMIGATUS, YAG media” value against Aspergillus fumigatus is given as 1 (1: ≥5 mg/L). Besides, in the assay with A. fumigatus 210, the “MIC grade, A. FUMIGATUS 210, YAG media” value is given as 1 (1: ≥5 mg/L). For the same molecule, the “MIC grade, C. TROPICALIS, RPMI media” value against C. tropicalis is recorded as 1 (1: ≥20 mg/L). The “MIC grade, C. PARAPSILOSIS, RPMI media” value against C. parapsilosis is 1 (1: ≥20 mg/L). For the same molecule, in the assay on C. albicans, the “MIC grade, C. ALBICANS, RPMI media” value was 1 (1: ≥20 mg/L). Further, the “MIC grade, A. TERREUS 49, YAG media” value against A. terreus 49 is recorded as 1 (1: ≥5 mg/L). Moreover, the “MIC grade, A. FLAVUS, YAG media” value against Aspergillus flavus is 1 (1: ≥5 mg/L). Also, the “MIC grade, A. NIGER, YAG media” value with Aspergillus niger was 2 (2: 1-5 mg/L). The “MIC grade, A. TERREUS, YAG media” value with Aspergillus terreus is reported as 1 (1: ≥5 mg/L).

With `N#Cc1ccc(C2=NN=C(N)SC2)cc1`, in the assay on Aspergillus fumigatus, the “MIC grade, A. FUMIGATUS, YAG media” value was 1 (1: ≥5 mg/L). The “MIC grade, A. FUMIGATUS 210, YAG media” value in the assay with A. fumigatus 210 is given as 2 (2: 1-5 mg/L). Further, the “MIC grade, C. TROPICALIS, RPMI media” value in the assay with C. tropicalis is on record as 1 (1: ≥20 mg/L). Moreover, in the assay with C. parapsilosis, the “MIC grade, C. PARAPSILOSIS, RPMI media” value is on record as 1 (1: ≥20 mg/L). The “MIC grade, C. ALBICANS, RPMI media” value in the assay with C. albicans is recorded as 1 (1: ≥20 mg/L). The “MIC grade, A. TERREUS 49, YAG media” value in the assay on A. terreus 49 is on record as 2 (2: 1-5 mg/L). Moreover, the “MIC grade, A. FLAVUS, YAG media” value against Aspergillus flavus was 2 (2: 1-5 mg/L). Besides, in the assay on Aspergillus niger, the “MIC grade, A. NIGER, YAG media” value is given as 2 (2: 1-5 mg/L). The “MIC grade, A. TERREUS, YAG media” value against Aspergillus terreus was 2 (2: 1-5 mg/L).

In the case of `CCCCOC(=O)c1ccc(C2=NN=C(N)SC2)cc1`, the “MIC grade, A. FUMIGATUS, YAG media” value with Aspergillus fumigatus is given as 3 (3: 0.2-1 mg/L). Further, the “MIC grade, A. FUMIGATUS 210, YAG media” value in the assay on A. fumigatus 210 is on record as 3 (3: 0.2-1 mg/L). Further, the “MIC grade, C. TROPICALIS, RPMI media” value in the assay on C. tropicalis was 1 (1: ≥20 mg/L). In addition, the “MIC grade, C. PARAPSILOSIS, RPMI media” value in the assay with C. parapsilosis is reported as 1 (1: ≥20 mg/L). For the same molecule, the “MIC grade, C. ALBICANS, RPMI media” value with C. albicans was 1 (1: ≥20 mg/L). The “MIC grade, A. TERREUS 49, YAG media” value in the assay with A. terreus 49 was 2 (2: 1-5 mg/L). In addition, in the assay on Aspergillus flavus, the “MIC grade, A. FLAVUS, YAG media” value was 3 (3: 0.2-1 mg/L). Moreover, the “MIC grade, A. NIGER, YAG media” value in the assay on Aspergillus niger is on record as 3 (3: 0.2-1 mg/L). Moreover, in the assay on Aspergillus terreus, the “MIC grade, A. TERREUS, YAG media” value was 2 (2: 1-5 mg/L).

On to `COCCCCC1=NN=C(N)SC1`, for which the “MIC grade, A. FUMIGATUS, YAG media” value against Aspergillus fumigatus is on record as 3 (3: 0.2-1 mg/L). Besides, in the assay with A. fumigatus 210, the “MIC grade, A. FUMIGATUS 210, YAG media” value was 4 (4: <0.2 mg/L). The “MIC grade, C. TROPICALIS, RPMI media” value in the assay with C. tropicalis was 3 (3: 1-5 mg/L). For the same molecule, the “MIC grade, C. PARAPSILOSIS, RPMI media” value in the assay on C. parapsilosis was 4 (4: <1 mg/L). For the same molecule, the “MIC grade, C. ALBICANS, RPMI media” value against C. albicans was 3 (3: 1-5 mg/L). In the assay on A. terreus 49, the “MIC grade, A. TERREUS 49, YAG media” value is reported as 3 (3: 0.2-1 mg/L). Besides, the “MIC grade, A. FLAVUS, YAG media” value in the assay with Aspergillus flavus was 3 (3: 0.2-1 mg/L). The “MIC grade, A. NIGER, YAG media” value in the assay with Aspergillus niger was 3 (3: 0.2-1 mg/L). For the same molecule, the “MIC grade, A. TERREUS, YAG media” value against Aspergillus terreus is on record as 3 (3: 0.2-1 mg/L).

Consider `Cc1ccc(C2=NN=C(N)SC2)cc1`, for which the “MIC grade, A. FUMIGATUS, YAG media” value in the assay on Aspergillus fumigatus is 3 (3: 0.2-1 mg/L). In addition, the “MIC grade, A. FUMIGATUS 210, YAG media” value in the assay on A. fumigatus 210 is on record as 3 (3: 0.2-1 mg/L). Also, in the assay with C. tropicalis, the “MIC grade, C. TROPICALIS, RPMI media” value is given as 1 (1: ≥20 mg/L). For the same molecule, the “MIC grade, C. PARAPSILOSIS, RPMI media” value in the assay on C. parapsilosis is on record as 2 (2: 5-20 mg/L). Besides, the “MIC grade, C. ALBICANS, RPMI media” value against C. albicans is 1 (1: ≥20 mg/L). Moreover, the “MIC grade, A. TERREUS 49, YAG media” value in the assay on A. terreus 49 was 3 (3: 0.2-1 mg/L). Besides, the “MIC grade, A. FLAVUS, YAG media” value in the assay with Aspergillus flavus is on record as 3 (3: 0.2-1 mg/L). Moreover, in the assay on Aspergillus niger, the “MIC grade, A. NIGER, YAG media” value is reported as 3 (3: 0.2-1 mg/L). In addition, the “MIC grade, A. TERREUS, YAG media” value with Aspergillus terreus is 2 (2: 1-5 mg/L).
